Measured values taken from PubChem BioAssay (NCI).
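1) Cells in 96-well plates. 2) Compound, 48 h, 5 concentrations. 3) Linear interpolation between surrounding doses. 4) Unreached endpoint = highest concentration. TGI: total growth inhibition.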 Where a SMILES comes first, the peptide text is derived from it. [ ]: non-standard residue; d: D form. The star is where a group is joined. Boc = CC(C)(C)OC(=O)*; Lac = C[CH](O)C(=O)O; OBn = c1ccc(CO*)cc1

Tests used:
Experiment in all cases: growth of human tumour cells (NCI), 48 h
OVCAR-4 ovarian = tested on: OVCAR-4 ovarian
HS 578T breast = tested on: HS 578T breast
HT29 colon = tested on: HT29 colon
MDA-MB-231 breast = tested on: MDA-MB-231 breast
HCC-2998 colon = tested on: HCC-2998 colon
NCI-H23 lung = tested on: NCI-H23 lung
CAKI-1 renal = tested on: CAKI-1 renal
RXF 393 renal = tested on: RXF 393 renal
HCT-15 colon = tested on: HCT-15 colon
LOX IMVI melanoma = tested on: LOX IMVI melanoma
EKVX NSCLC = tested on: EKVX NSCLC
IGROV1 ovarian = tested on: IGROV1 ovarian
SN12C renal = tested on: SN12C renal
RPMI-8226 leukemia = tested on: RPMI-8226 leukemia
UACC-62 melanoma = tested on: UACC-62 melanoma
786-0 renal = tested on: 786-0 renal
TK-10 renal = tested on: TK-10 renal
CCRF-CEM leukemia = tested on: CCRF-CEM leukemia
SK-MEL-2 melanoma = tested on: SK-MEL-2 melanoma
K-562 leukemia = tested on: K-562 leukemia
SF-539 CNS = tested on: SF-539 CNS
SNB-75 CNS = tested on: SNB-75 CNS
OVCAR-8 ovarian = tested on: OVCAR-8 ovarian
MOLT-4 leukemia = tested on: MOLT-4 leukemia
DU-145 prostate = tested on: DU-145 prostate
A549 NSCLC = tested on: A549 NSCLC
SK-OV-3 ovarian = tested on: SK-OV-3 ovarian
SF-295 CNS = tested on: SF-295 CNS
A498 renal = tested on: A498 renal
COLO 205 colon = tested on: COLO 205 colon
OVCAR-3 ovarian = tested on: OVCAR-3 ovarian
HL-60(TB) leukemia = tested on: HL-60(TB) leukemia
SW-620 colon = tested on: SW-620 colon
M14 melanoma = tested on: M14 melanoma
MDA-N = tested on: MDA-N
SNB-19 CNS = tested on: SNB-19 CNS
NCI-H522 lung = tested on: NCI-H522 lung
SK-MEL-5 melanoma = tested on: SK-MEL-5 melanoma
MALME-3M melanoma = tested on: MALME-3M melanoma
NCI-H226 lung = tested on: NCI-H226 lung
KM12 colon = tested on: KM12 colon
BT-549 breast = tested on: BT-549 breast
MCF7 breast = tested on: MCF7 breast
T-47D breast = tested on: T-47D breast
OVCAR-5 ovarian = tested on: OVCAR-5 ovarian
HCT-116 colon = tested on: HCT-116 colon
SF-268 CNS = tested on: SF-268 CNS
NCI/ADR-RES ovarian = tested on: NCI/ADR-RES ovarian
ACHN renal = tested on: ACHN renal
MDA-MB-435 = tested on: MDA-MB-435
UACC-257 melanoma = tested on: UACC-257 melanoma
HOP-92 NSCLC = tested on: HOP-92 NSCLC
HOP-62 NSCLC = tested on: HOP-62 NSCLC
UO-31 renal = tested on: UO-31 renal
U251 CNS = tested on: U251 CNS
NCI-H460 lung = tested on: NCI-H460 lung
SR leukemia = tested on: SR leukemia
PC-3 prostate = tested on: PC-3 prostate
SK-MEL-28 melanoma = tested on: SK-MEL-28 melanoma

Measured: TGI

C=C(C)[C@@H]1CCC2=C[C@@H](OC2=O)[C@@H](C(=C)C)C2=CC(C(=O)O)=C(C1)O2
not listed: U251 CNS | NCI-H460 lung | SR leukemia | PC-3 prostate | SK-MEL-28 melanoma
> 100 µM: all other assays above

Cc1nnc2n1N=C(c1ccccc1)/C(=C/c1ccc(-c3ccc(Cl)cc3)o1)S2
27.5 µM: SK-MEL-2 melanoma
26.8 µM: RPMI-8226 leukemia
49.8 µM: HOP-62 NSCLC
16.4 µM: CCRF-CEM leukemia
29.4 µM: CAKI-1 renal
35.7 µM: SN12C renal
24.4 µM: U251 CNS
49.9 µM: SF-295 CNS
26.5 µM: UO-31 renal
44.7 µM: HT29 colon
38.9 µM: DU-145 prostate
42.4 µM: T-47D breast
31.1 µM: NCI-H226 lung
32.6 µM: HOP-92 NSCLC
19.9 µM: HCC-2998 colon
26 µM: PC-3 prostate
23.9 µM: OVCAR-3 ovarian
23 µM: MOLT-4 leukemia
> 100 µM: HS 578T breast | SK-OV-3 ovarian | MCF7 breast
22.3 µM: MDA-MB-435
33 µM: MDA-MB-231 breast
47.4 µM: K-562 leukemia
31.3 µM: HCT-15 colon
28.4 µM: HL-60(TB) leukemia
41.5 µM: COLO 205 colon
32.2 µM: BT-549 breast
42.1 µM: SR leukemia
33.6 µM: MALME-3M melanoma
34.2 µM: NCI-H460 lung
47.7 µM: SW-620 colon
34 µM: MDA-N
29.1 µM: UACC-62 melanoma
33.2 µM: SF-268 CNS
26.3 µM: ACHN renal
36.4 µM: NCI-H23 lung
53.3 µM: EKVX NSCLC
36.6 µM: IGROV1 ovarian | M14 melanoma
39.9 µM: OVCAR-5 ovarian
24.7 µM: NCI-H522 lung
27.2 µM: 786-0 renal | SK-MEL-5 melanoma
36.2 µM: UACC-257 melanoma
49.4 µM: A549 NSCLC
35 µM: SNB-19 CNS
32.4 µM: KM12 colon
25.9 µM: HCT-116 colon
26.4 µM: TK-10 renal
80 µM: OVCAR-4 ovarian
31.4 µM: A498 renal
26.7 µM: RXF 393 renal

Cc1ccc(S(=O)(=O)NC(=O)NC(CC(N)=O)C(=O)O)cc1 (configuration not stated)
not listed: HCC-2998 colon | CAKI-1 renal | EKVX NSCLC | A498 renal | OVCAR-3 ovarian | NCI-H226 lung | MDA-MB-435
> 100 µM: all other assays above

CN(Cc1cnc2nc(N)nc(N)c2n1)c1ccc(C(=O)NCCS(=O)(=O)O)cc1
not listed: RXF 393 renal | CCRF-CEM leukemia | HOP-92 NSCLC
> 100 µM: all other assays above

CC(OC(=O)C(Cc1ccccc1)NC(=O)C(Cc1ccccc1)NC(=O)OC(C)(C)C)C(=O)OCc1ccccc1 (stereo not drawn) (Boc-Phe-Phe-[Lac]-OBn; configuration not given here)
54.6 µM: MCF7 breast
not listed: OVCAR-4 ovarian | HT29 colon | LOX IMVI melanoma | EKVX NSCLC | UACC-62 melanoma | 786-0 renal | TK-10 renal | SF-539 CNS | A549 NSCLC | A498 renal | SW-620 colon | SF-268 CNS | ACHN renal | UACC-257 melanoma
> 100 µM: all other assays above

S=C(N1CCN(c2ccc(Cl)c(Cl)c2)CC1)N1CCN(c2ccc(Cl)c(Cl)c2)CC1
26.3 µM: OVCAR-3 ovarian
22.4 µM: COLO 205 colon
5.82 µM: SR leukemia
39.4 µM: RPMI-8226 leukemia
30.9 µM: UACC-257 melanoma
26.7 µM: K-562 leukemia | SNB-19 CNS
28.7 µM: SK-MEL-28 melanoma
22.8 µM: NCI-H522 lung
33.8 µM: SW-620 colon
26.6 µM: HCC-2998 colon
9.44 µM: CCRF-CEM leukemia
25.1 µM: SK-OV-3 ovarian
35.1 µM: RXF 393 renal
44.7 µM: OVCAR-5 ovarian
21.2 µM: MDA-MB-231 breast
32.4 µM: SF-268 CNS
27.1 µM: KM12 colon
21.3 µM: HT29 colon
26.5 µM: HOP-62 NSCLC
37.9 µM: A549 NSCLC
23.8 µM: MDA-N | NCI-H226 lung
28.2 µM: PC-3 prostate
27.4 µM: ACHN renal
23.3 µM: T-47D breast
28.3 µM: OVCAR-4 ovarian | OVCAR-8 ovarian
28.4 µM: SK-MEL-5 melanoma
25.8 µM: UO-31 renal
29 µM: MDA-MB-435
22.5 µM: IGROV1 ovarian
19.9 µM: MOLT-4 leukemia
22.2 µM: SF-295 CNS
28.1 µM: DU-145 prostate | MALME-3M melanoma
22.7 µM: 786-0 renal
32.3 µM: M14 melanoma
24 µM: MCF7 breast
26.1 µM: TK-10 renal
26 µM: HS 578T breast
15.2 µM: EKVX NSCLC
30.4 µM: BT-549 breast
29.7 µM: NCI-H23 lung
20.4 µM: CAKI-1 renal
28.8 µM: HCT-15 colon | UACC-62 melanoma
28 µM: U251 CNS
19.4 µM: HCT-116 colon
30.3 µM: NCI/ADR-RES ovarian
41.7 µM: SK-MEL-2 melanoma

Cn1c(=O)c2c3ccccc3n(C)c2n(C)c1=O
83.9 µM: SK-OV-3 ovarian
not listed: NCI-H460 lung | PC-3 prostate | SK-MEL-28 melanoma
> 100 µM: all other assays above
